Source: patent US12404249B2, “Heterocyclic derivatives and use thereof” (C&C RESEARCH LABORATORIES, priority 2018, dated 2025)

Tests used:
[1] = tested on: prostate cancer cell line (LNCap); experiment: Cell growth inhibition assay (Celltiter Glo); type: cell-based; conditions: Homo sapiens, LNCap cells, 120 hours incubation
Description: Cancer cell inhibitory effects by the compounds of the Examples were evaluated as follows. The prostate cancer cell line (LNCap) used was cultured under the condition according to the vendor's recommendation. LNCap was dispensed into a 96-well plate at 10,000 cells/well. After incubation under the condition of 37° C. and 5% CO2 for 24 hours, the Example compounds of 50 mM DMSO stock were diluted to various concentrations and treated to the 96-well plate containing cells. After treatment of the Example compounds, LNCap cells were incubated in an incubator (37° C., 5% CO2) for 120 hours. After each incubation time, the 96-well plate was observed under a microscope to record the presence or absence of drug precipitation and specificities, and the 96-well plate was kept at room temperature for 30 minutes. Then, after addition of 20 μL of Celltiter Glo solution, the 96-well plate was well shaken for 30 minutes. The growth inhibitory activity was measured on microLUMA LB96P (BERTHOLD) instrument using Glo-vial protocol. As a negative control, a 96 well-plate in which culture medium was added but cells were not plated was used. As a positive control, a 96 well-plate in which cells were plated and 0.1% DMSO instead of drugs was added was used. The results of growth inhibitory effects of the Example compounds on prostate cancer cell line are represented in Table 2.

[2] = biological target: T1, STAT3 (Homo sapiens, UniProt P40763); experiment: STAT3 activation inhibition assay (reporter gene assay, LNcaP stable cell line, IL-6 stimulated); type: cell-based; conditions: LNcaP stable cell line [plasmid STAT3-TA-luc], IL-6 10 ng/mL, 48 hours, luciferase activity; read-out: IC50 (μM) pSTAT3
T1 construct: endogenous in cells; host or cells: LNCaP (human prostate cancer) stably carrying pSTAT3-TA-luc reporter plasmid
T1 sequence (P40763 whole entry): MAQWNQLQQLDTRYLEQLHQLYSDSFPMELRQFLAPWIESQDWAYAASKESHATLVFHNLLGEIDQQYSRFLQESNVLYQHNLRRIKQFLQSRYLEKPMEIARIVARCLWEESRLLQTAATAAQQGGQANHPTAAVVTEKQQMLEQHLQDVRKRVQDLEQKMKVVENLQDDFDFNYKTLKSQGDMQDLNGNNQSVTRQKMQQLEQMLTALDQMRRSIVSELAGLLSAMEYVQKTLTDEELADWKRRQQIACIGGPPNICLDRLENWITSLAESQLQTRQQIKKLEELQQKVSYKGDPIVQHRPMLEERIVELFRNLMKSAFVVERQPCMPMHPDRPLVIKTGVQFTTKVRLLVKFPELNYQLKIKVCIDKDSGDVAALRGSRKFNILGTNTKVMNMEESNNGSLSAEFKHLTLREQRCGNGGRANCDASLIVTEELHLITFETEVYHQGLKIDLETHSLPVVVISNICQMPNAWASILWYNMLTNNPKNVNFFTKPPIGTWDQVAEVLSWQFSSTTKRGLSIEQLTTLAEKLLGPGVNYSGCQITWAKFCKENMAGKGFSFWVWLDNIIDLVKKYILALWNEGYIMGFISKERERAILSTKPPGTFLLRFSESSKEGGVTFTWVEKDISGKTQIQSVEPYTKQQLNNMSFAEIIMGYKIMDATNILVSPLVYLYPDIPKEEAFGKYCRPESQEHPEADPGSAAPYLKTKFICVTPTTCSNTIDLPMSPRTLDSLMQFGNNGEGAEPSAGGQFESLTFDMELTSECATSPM
Description: Cancer cell lines used for evaluating the compounds of the Examples were purchased from ATCC (American Type Culture Collection) or KCLB (Korean Cell Line Bank), and cultured according to the vendor's recommendation. The human prostate cancer cell line stably expressing the STAT3 promoter (LNcaP stable cell line [plasmid STAT3-TA-luc])—which was prepared to evaluate the inhibitory effect of the compounds of the Examples against dimerization of STAT3—was cultured in RPMI1640 (Cat no. 11875, Gibco), 10% fetal bovine serum (Cat no. SH30071.03, Hyclone) and 150 μg/mL G418 solution (Cat no. 04 727 894 001, Roche).
The reporter gene assay of LNcap stable cell line was carried out by the use of RPMI 1640 medium containing 3% DCC-FBS (without G-418). The cell line was dispensed into two (2) white 96-well plates at 30,000 cells/well/50 μL. The cell line was incubated for 24 hours under the condition of 37° C. and 5% CO2, and then the Example compounds of 50 mM DMSO stock were diluted to various concentrations and treated to two (2) white 96-well plates containing cells. Then, IL-6 was treated to a final concentration of 10 ng/mL. After the treatment of Example compounds and IL-6, the cells were cultured for 48 hours under the condition of 37° C. and 5% CO2. After 48 hours, the 96-well plates were observed under a microscope to record the presence or absence of drug precipitation and specificities, and the 96-well plates were kept at room temperature for 30 minutes. Then, in the case of the first 96-well plate, the culture medium on the plate was removed to measure the luciferase activity, and treated with passive lysis buffer at 20 µL/well and shaken for 30 minutes. The luciferase activity was measured on microLUMA LB96P (BERTHOLD) or Centro XS LB 960 (BERTHOLD) instrument using Luciferase assay system (Cat No. E1501, Promega Corporation). In the case of the second 96-well plate, 20 μL of Glo-mix solution was added to measure cytotoxicity by the compounds of the Examples, and the plate was well shaken for 10 minutes and analyzed on microLUMA LB96P (BERTHOLD) instrument using Glo-vial protocol. As a negative control, a 96 well-plate in which culture medium was added but cells were not plated was used. As a positive control, a 96 well-plate in which cells were plated and 0.1% DMSO and culture medium containing stimulation were added was used.
The results of evaluating the inhibitory effects of the compounds of the Examples against dimerization of STAT3 and STAT1 via STAT3 and STAT1 reporter gene assay are represented in Table 1.

| SMILES | IC50 [1] [µM] | IC50 [2] [µM] |
| --- | --- | --- |
| CS(=O)(=O)Nc1ccc(CCNc2cncc3ccccc23)cc1 [Example 63, N-(4-(2-(isoquinolin-4-ylamino)ethyl)phenyl)methanesulfonamide] | 1.9 | 0.75 |
| CS(=O)(=O)Nc1ccc(CCNc2ncnc3ccc(F)cc23)cc1 [Example 64, N-(4-(2-((6-fluoroquinazolin-4-yl)amino)ethyl)phenyl)methanesulfonamide] | 0.23 | 0.063 |
| O=C(Cc1ccc([N+](=O)[O-])cc1)Nc1ncnc2ccccc12 [Example 65, 2-(4-nitrophenyl)-N-(quinazolin-4-yl)acetamide] | > 50 | > 50 |
| CS(=O)(=O)Nc1ccc(CCNc2ncnc3ccsc23)cc1 [Example 66, N-(4-(2-(thieno[3,2-d]pyrimidin-4-ylamino)ethyl)phenyl)methanesulfonamide] | 0.71 | 0.74 |
| O=[N+]([O-])c1ccc(CCNc2nc(Cl)nc3ncccc23)cc1 [Example 67, 2-chloro-N-(4-nitrophenethyl)pyrido[2,3-d]pyrimidin-4-amine] | 3.7 | 4.4 |
| CS(=O)(=O)Nc1ccc(CCNc2ncnc3sccc23)cc1 [Example 68, N-(4-(2-(thieno[2,3-d]pyrimidin-4-ylamino)ethyl)phenyl)methanesulfonamide] | 0.27 | 0.076 |
| CS(=O)(=O)Nc1ccc(CCNc2ncnc3scnc23)cc1 [Example 69, N-(4-(2-(thiazolo[5,4-d]pyrimidin-7-ylamino)ethyl)phenyl)methanesulfonamide] | 0.13 | 0.046 |
| CS(=O)(=O)Nc1ccc(CCNc2ncnc3[nH]ccc23)cc1 [Example 70, N-(4-(2-((7H-pyrrolo[2,3-d]pyrimidin-4-yl)amino)ethyl)phenyl)methanesulfonamide] | 10.8 | 3.8 |
| CS(=O)(=O)Nc1ccc(CCNc2nccc3nccnc23)cc1 [Example 71, N-(4-(2-(pyrido[3,4-b]pyrazin-5-ylamino)ethyl)phenyl)methanesulfonamide] | 20.9 | 9.6 |

Further lines, results first:

| IC50 [1] [µM] | IC50 [2] [µM] | SMILES |
| --- | --- | --- |
| 1.4 | 0.62 | Cc1cnc2ccccc2c1NCCc1ccc(NS(C)(=O)=O)cc1 [Example 72, N-(4-(2-((3-methylquinolin-4-yl)amino)ethyl)phenyl)methanesulfonamide] |
| 33 | 35.9 | CS(=O)(=O)Nc1ccc(CCNc2nccc3occc23)cc1 [Example 73, N-(4-(2-(furo[3,2-c]pyridin-4-ylamino)ethyl)phenyl)methanesulfonamide] |
| 13.1 | 3.9 | CS(=O)(=O)Nc1ccc(CCNc2ncc(Cl)c3ccccc23)cc1 [Example 74, N-(4-(2-((4-chloroisoquinolin-1-yl)amino)ethyl)phenyl)methanesulfonamide] |
| 6 | 4.3 | CS(=O)(=O)Nc1ccc(CCNc2nccc3ccccc23)cc1 [Example 75, N-(4-(2-(isoquinolin-1-ylamino)ethyl)phenyl)methanesulfonamide] |
| 3.9 | 1.2 | COc1cc(NCCc2ccc(NS(C)(=O)=O)cc2)c2ccccc2n1 [Example 76, N-(4-(2-((2-methoxyquinolin-4-yl)amino)ethyl)phenyl)methanesulfonamide] |
